# According to patent publication US7608633B2, “Heteroaryl-substituted acetone derivatives as inhibitors of phospholipase A2” (Merckle GmbH, priority 2003, dated 2009):
# Experiments:
# [1] = target: T1, cytosolic phospholipase A2 (Homo sapiens, UniProt P47712); assay: Inhibition of cytosolic phospholipase A2 in intact human platelets stimulated with calcium ionophor A23187 (arachidonic acid release, HPLC); format: cell-based; conditions: concentration of 10 μM, calcium ionophor A23187 stimulation, one collective range for the six compounds, read-out: inhibited the activity of cytosolic phospholipase A2
# T1 construct: endogenous in cells; host or cells: intact human platelets (thrombocytes)
# T1 sequence (P47712 1-749): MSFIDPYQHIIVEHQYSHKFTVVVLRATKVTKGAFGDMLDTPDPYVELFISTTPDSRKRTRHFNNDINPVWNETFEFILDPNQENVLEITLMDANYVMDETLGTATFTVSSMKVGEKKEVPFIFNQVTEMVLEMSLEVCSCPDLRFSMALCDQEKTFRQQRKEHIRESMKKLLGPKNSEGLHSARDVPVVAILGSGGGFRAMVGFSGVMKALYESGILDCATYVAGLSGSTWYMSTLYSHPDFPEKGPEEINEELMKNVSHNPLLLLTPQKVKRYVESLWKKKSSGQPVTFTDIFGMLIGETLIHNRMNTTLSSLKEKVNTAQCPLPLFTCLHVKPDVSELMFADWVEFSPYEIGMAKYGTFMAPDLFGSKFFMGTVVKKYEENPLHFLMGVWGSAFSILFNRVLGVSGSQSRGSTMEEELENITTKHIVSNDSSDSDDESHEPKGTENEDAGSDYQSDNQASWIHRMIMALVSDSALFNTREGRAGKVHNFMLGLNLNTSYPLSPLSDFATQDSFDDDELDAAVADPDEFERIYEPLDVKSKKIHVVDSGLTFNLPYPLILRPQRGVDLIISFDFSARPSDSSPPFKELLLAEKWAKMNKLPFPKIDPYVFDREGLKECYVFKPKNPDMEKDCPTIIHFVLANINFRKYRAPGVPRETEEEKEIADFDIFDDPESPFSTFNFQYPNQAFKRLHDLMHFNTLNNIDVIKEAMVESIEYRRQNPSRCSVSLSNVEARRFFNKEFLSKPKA
# Text: The effectiveness of the compounds according to the invention can be determined by the inhibition of cytosolic phospholipase A2. To this end, cytosolic phospholipase A2 is stimulated in intact human thrombocytes with calcium ionophor A23187 so as to trigger the release of arachidonic acid from the membrane phospholipids. In order to prevent the metabolization of the enzyme product arachidonic acid via the cyclooxygenase route and the 12-lipoxygenase route, the dual cyclooxygenase/12-lipoxygenase-inhibitor 5,8,11,14-eicosatetraynoic acid is added. Following purification by means of solid phase extraction, the released arachidonic acid is determined by reversed phase-HPLC using U.V. detection. The inhibition of the enzyme by a test substance follows from the ratio of the arachidonic acid amounts formed in the presence or absence of the test substance. More detailed information on the test system is made in Example 10.
# The effectiveness of the compounds according to the invention can be determined by the inhibition of cytosolic phospholipase A2. The test method used was described earlier (Lehr M. et al., Arch. Pharm. Pharm. Med. Chem. 2000, 333, 312-314). Here, the arachidonic acid formed by cytosolic phospholipase A2 in intact human platelets following stimulation using calcium ionophor A23187 is detected in the presence and absence of test substances.
SMILES,melting point,inhibition at 10 µM [1] [%]
"CCCCCCCCc1ccc(OCC(=O)Cn2cc(C(C)(C)C)c3cc(C(=O)O)ccc32)cc1 [Example 18, 3-tert-Butyl-1-[3-(4-octylphenoxy)-2-oxopropyl]indole-5-carboxylic acid]",146 to 147 °C,
"CCCCCCCCc1ccc(OCC(=O)Cn2c(C(=O)O)cc3ccccc32)cc1 [Example 7, 1-[3-(4-Octylphenoxy)-2-oxopropyl]indole-2-carboxylic acid]",173 °C,40 to 95
"CCCCCCCCc1ccc(OCC(=O)Cn2cccc2C(=O)O)cc1 [Example 5, 1-[3-(4-Octylphenoxy)-2-oxopropyl]pyrrol-2-carboxylic acid]",157 °C (dec.),40 to 95
"CCCCCCCCc1ccc(OCC(=O)Cn2ccc3cc(OC)ccc32)cc1 [Example 14, 1-(5-Methoxyindol-1-yl)-3-(4-octylphenoxy)propan-2-one]",85 °C,
"CCCCCCCn1ccc2cc(OCC(=O)Cn3ccc4cc(C(N)=O)ccc43)ccc21 [Example 30, 1-[3-(1-Heptylindol-5-yloxy)-2-oxopropyl]indole-5-carbamide]",171 °C,
CCCCCCCCc1ccc(OCC(=O)Cn2ccc3ccccc32)cc1,65 °C,
CCCCCCCCc1ccc(OCC(=O)Cn2cc(C(=O)OC)c3cc(C(=O)O)ccc32)cc1,208 °C,
CCCCCCCCc1ccc(OCC(=O)Cn2cc(C(C)=O)c3cc(C(=O)O)ccc32)cc1,197 °C,
"CCCCCCCCc1ccc(OCC(=O)Cn2cc(C(C)(C)C)c3ccc(C(=O)O)cc32)cc1 [Example 23, 3-tert-Butyl-1-[3-(4-octylphenoxy)-2-oxopropyl]indole-6-carboxylic acid]",145 to 146 °C,
"CCCCCCCCc1ccc(OCC(=O)Cn2ccc3cc(C#N)ccc32)cc1 [Example 15, 1-(3-(4-Octylphenoxy)-2-oxopropyl]indole-5-carbonitrile]",96 °C,
"CCCCCCCCc1ccc(OCC(=O)Cn2ccc3cc(C(=O)O)ccc32)cc1 [Example 9, 1-[3-(4-Octylphenoxy)-2-oxopropyl]indole-5-carboxylic acid]",,40 to 95
"CCCCCCCCc1ccc(OCC(=O)Cn2ccc(C(=O)O)c2)cc1 [Example 6, 1-[3-(4-Octylphenoxy)-2-oxopropyl]pyrrole-3-carboxylic acid]",,40 to 95
"CCCCCCCCc1ccc(OCC(=O)Cn2cc(C(=O)O)c3ccccc32)cc1 [Example 8, 1-[3-(4-Octylphenoxy)-2-oxopropyl]indole-3-carboxylic acid]",182 to 183 °C,40 to 95
"CCCCCCCOc1ccc(OCC(=O)Cn2ccc3cc(C(N)=O)ccc32)cc1 [Example 26, 1-[3-(4-Heptyloxyphenoxy)-2-oxopropyl]indole-5-carbamide]",114 °C,
CCCCCCCCc1ccc(OCC(=O)Cn2ncc3ccccc32)cc1,66 to 67 °C,
"CCCCCCCCc1ccc(OCC(=O)Cn2cc(Cl)c3cc(C(=O)O)ccc32)cc1 [Example 19, 3-Chloro-1-[3-(4-octylphenoxy)-2-oxopropyl]indole-5-carboxylic acid]",157 °C,
CCCCCCCCc1ccc(OCC(=O)Cn2cccc2)cc1,58 to 59 °C,
"CCCCCCCCc1ccc(OCC(=O)Cn2ccc3cc(C=O)ccc32)cc1 [Example 16, 1-[3-(4-Octylphenoxy)-2-oxopropyl]indole-5-carbaldehyde]",96 °C,
"CCCCCCCCc1ccc(OCC(=O)Cn2ccc3cc(C(=O)OC)ccc32)cc1 [Example 17, Methyl-1-(3-(4-octylphenoxy)-2-oxopropyl]indole-5-carboxylate]",118 °C,
"CCCCCCCCc1ccc(OCC(=O)Cn2cccn2)cc1 [Example 2, 1-(4-Octylphenoxy)-3-(pyrazol-1-yl)propan-2-one]",,40 to 95
"CCCCCCCCc1ccc(OCC(=O)Cn2ccc3cc(Cl)ccc32)cc1 [Example 13, 1-(5-Chloroindol-1-yl)-3-(4-octylphenoxy)propan-2-one]",77 °C,
CCCCCCCCc1ccc(OCC(=O)Cn2cc(C=O)c3cc(C(=O)O)ccc32)cc1,193 °C,
